Test results as given in publication PMC10609013, “Solubility and Thermodynamic Analysis of Isotretinoin in Different (DMSO + Water) Mixtures” (Molecules, 2023).

Tests used:
[1] = Apparent thermodynamic analysis of ITN dissolution (van't Hoff and Gibbs equations); type: physicochemical
Procedure: At the mean harmonic temperature (Thm), all apparent thermodynamic parameters for ITN were determined. The Thm was determined using the reported equation [51, 56]. […] The “van’t Hoff and Gibbs equations” were used to calculate these parameters. The ΔsolH^0 values for ITN (3) in various {DMSO (1) + H2O (2)} mixtures were calculated using Equation (10) and Thm = 308 K [47, 62]:(10) ∂lnxe/∂1/T−1/ThmP=−∆solH^0/R
The “ΔsolH^0” for ITN was derived using the graphed “van’t Hoff” plots between the ln xe values of ITN and 1/T−1/Thm .
Additionally, at Thm = 308 K, the ΔsolG^0 for ITN (3) in binary {DMSO (1) + H2O (2)} mixes was calculated using the Krug et al. methodology via Equation (11):(11) ∆solG^0=−RThm×intercept where, the “van’t Hoff plots” shown in Figure 5 were used to determine the intercept values for ITN (3) in binary mixtures of DMSO (1) and H2O (2).
By Equation (12), the ΔsolS^0 for ITN (3) in numerous {DMSO (1) + H2O (2)} mixtures was derived:(12) ∆solS^0=∆solH^0−∆solG^0/Thm

[2] = set-up: method as in PMID 36431759; settings: cited from earlier work
[3] = Shake flask solubility of ITN in {DMSO (1) + H2O (2)} mixes, HPLC; type: physicochemical; settings: 101.1 kPa
Procedure: A series of {DMSO (1) + H2O (2)} solutions, with DMSO mass percentages ranging from 0.10 to 0.90, was examined. Three replicates of each {DMSO (1) + H2O (2)} combination were taken. ITN’s mole fraction solubility versus mass fraction of DMSO (m = 0.0–1.0) and neat DMSO and H2O was measured using a shake flask approach at 298.2–318.2 K and 101.1 kPa. In essence, the known amounts of each {DMSO (1) + H2O (2)} combination and neat DMSO and H2O were combined with extra ITN crystals in triplicate. The equilibrium was achieved by saturating the resultant mixes in a WiseBath® WSB shaking water bath (Model WSB-18/30/-45, Daihan Scientific Co. Ltd., Seoul, Korea) at a shaking speed of 100 rpm for 72 h. In order to evaluate the equilibrium time, the preliminary experiments were performed at different time intervals. […] The saturated solutions were again removed from the shaker after they had reached equilibrium and centrifuged for 30 min at 5000 rpm. A previously established environmentally friendly HPLC method was used to assess the ITN content after the supernatants were isolated and diluted (as required). The identification of ITN was carried out via a Nucleodur (dimensions: 150 mm × 4.6 mm and particle size: 5 μm) reversed-phase C18 analytical column at 298.2 K. The environmentally friendly mobile used was a binary mixture of ethyl acetate and ethanol (50:50% v v^−1). The mobile phase was delivered with a flow speed of 1 mL min^−1. The ITN measurements were performed at a wavelength of 354 nm. The sample volume was 20 μL, which was injected using a Waters autosampler. The Analytical GREEnness (AGREE) score was determined to evaluate the eco-friendliness nature of the HPLC method. The AGREE score was predicted to be 0.76 for the present HPLC method, indicating the eco-friendly nature of the HPLC method. ITN mole fraction solubilities (xe) were calculated using their standard formulae described in our previous work.

[4] = DMSO mass fraction m = 0.0, Thm = 308 K
[5] = DMSO mass fraction m = 0.1, Thm = 308 K
[6] = DMSO mass fraction m = 0.2, Thm = 308 K
[7] = DMSO mass fraction m = 0.3, Thm = 308 K
[8] = DMSO mass fraction m = 0.4, Thm = 308 K
[9] = DMSO mass fraction m = 0.5, Thm = 308 K
[10] = DMSO mass fraction m = 0.6, Thm = 308 K
[11] = DMSO mass fraction m = 0.7, Thm = 308 K
[12] = DMSO mass fraction m = 0.8, Thm = 308 K
[13] = DMSO mass fraction m = 0.9, Thm = 308 K
[14] = DMSO mass fraction m = 1.0, Thm = 308 K

Which results are given for `CC1=C(/C=C/C(C)=C/C=C/C(C)=C\C(=O)O)C(C)(C)CCC1` [ITN, isotretinoin]?
ΔsolG^0 apparent standard Gibbs energy [1, 4]: 36.27 (0.43) kJ mol^−1; ΔsolH^0 apparent standard enthalpy [1, 4]: 63.00 (0.76) kJ mol^−1; ΔsolS^0 apparent standard entropy [1, 4]: 86.78 (1.12) J mol^−1 K^−1; ΔsolG^0 apparent standard Gibbs energy [1, 5]: 33.20 (0.41) kJ mol^−1; ΔsolH^0 apparent standard enthalpy [1, 5]: 57.15 (0.67) kJ mol^−1; ΔsolS^0 apparent standard entropy [1, 5]: 77.75 (1.03) J mol^−1 K^−1; ΔsolG^0 apparent standard Gibbs energy [1, 6]: 30.19 (0.39) kJ mol^−1; ΔsolH^0 apparent standard enthalpy [1, 6]: 52.98 (0.63) kJ mol^−1; ΔsolS^0 apparent standard entropy [1, 6]: 73.99 (1.00) J mol^−1 K^−1; ΔsolG^0 apparent standard Gibbs energy [1, 7]: 27.15 (0.37) kJ mol^−1; ΔsolH^0 apparent standard enthalpy [1, 7]: 46.19 (0.52) kJ mol^−1; ΔsolS^0 apparent standard entropy [1, 7]: 61.83 (0.98) J mol^−1 K^−1; ΔsolG^0 apparent standard Gibbs energy [1, 8]: 24.14 (0.36) kJ mol^−1; ΔsolH^0 apparent standard enthalpy [1, 8]: 41.89 (0.48) kJ mol^−1; ΔsolS^0 apparent standard entropy [1, 8]: 57.59 (0.92) J mol^−1 K^−1; ΔsolG^0 apparent standard Gibbs energy [1, 9]: 21.13 (0.30) kJ mol^−1; ΔsolH^0 apparent standard enthalpy [1, 9]: 35.40 (0.42) kJ mol^−1; ΔsolS^0 apparent standard entropy [1, 9]: 46.31 (0.81) J mol^−1 K^−1; ΔsolG^0 apparent standard Gibbs energy [1, 10]: 18.10 (0.26) kJ mol^−1; ΔsolH^0 apparent standard enthalpy [1, 10]: 31.28 (0.40) kJ mol^−1; ΔsolS^0 apparent standard entropy [1, 10]: 42.78 (0.74) J mol^−1 K^−1; ΔsolG^0 apparent standard Gibbs energy [1, 11]: 15.10 (0.24) kJ mol^−1; ΔsolH^0 apparent standard enthalpy [1, 11]: 23.95 (0.32) kJ mol^−1; ΔsolS^0 apparent standard entropy [1, 11]: 28.74 (0.56) J mol^−1 K^−1; ΔsolG^0 apparent standard Gibbs energy [1, 12]: 12.07 (0.20) kJ mol^−1; ΔsolH^0 apparent standard enthalpy [1, 12]: 20.05 (0.28) kJ mol^−1; ΔsolS^0 apparent standard entropy [1, 12]: 25.90 (0.48) J mol^−1 K^−1; ΔsolG^0 apparent standard Gibbs energy [1, 13]: 9.078 (0.14) kJ mol^−1; ΔsolH^0 apparent standard enthalpy [1, 13]: 13.35 (0.22) kJ mol^−1; ΔsolS^0 apparent standard entropy [1, 13]: 13.87 (0.23) J mol^−1 K^−1; ΔsolG^0 apparent standard Gibbs energy [1, 14]: 6.077 (0.09) kJ mol^−1; ΔsolH^0 apparent standard enthalpy [1, 14]: 7.430 (0.10) kJ mol^−1; ΔsolS^0 apparent standard entropy [1, 14]: 4.392 (0.10) J mol^−1 K^−1; nature of dissolution ([1]; all {DMSO (1) + H2O (2)} mixes, including neat DMSO and H2O): endothermic and entropy-driven; total HSP (δt) [2]: 19.30 MPa^1/2; xe experimental solubility ([3]; DMSO mass fraction m = 0.0, T = 298.2 K): 3.10 (0.07) × 10^−7 mole fraction; xe experimental solubility ([3]; DMSO mass fraction m = 0.0, T = 303.2 K): 4.60 (0.15) × 10^−7 mole fraction; xe experimental solubility ([3]; DMSO mass fraction m = 0.0, T = 308.2 K): 7.50 (0.18) × 10^−7 mole fraction; xe experimental solubility ([3]; DMSO mass fraction m = 0.0, T = 313.2 K): 1.10 (0.02) × 10^−6 mole fraction; xe experimental solubility ([3]; DMSO mass fraction m = 0.0, T = 318.2 K): 1.50 (0.03) × 10^−6 mole fraction; xe experimental solubility ([3]; DMSO mass fraction m = 0.1, T = 298.2 K): 1.12 (0.02) × 10^−6 mole fraction; xe experimental solubility ([3]; DMSO mass fraction m = 0.1, T = 303.2 K): 1.59 (0.03) × 10^−6 mole fraction; xe experimental solubility ([3]; DMSO mass fraction m = 0.1, T = 308.2 K): 2.45 (0.05) × 10^−6 mole fraction; xe experimental solubility ([3]; DMSO mass fraction m = 0.1, T = 313.2 K): 3.47 (0.06) × 10^−6 mole fraction; xe experimental solubility ([3]; DMSO mass fraction m = 0.1, T = 318.2 K): 4.61 (0.11) × 10^−6 mole fraction
